Earlier results, collected in patent publication US5883123A, “Butyrate prodrugs derived from lactic acid” (Vertex Pharmaceuticals, Inc., priority 1995, dated 1999).

Tests used:
[1] = system: tumor; details: mice
[2] = system: Cultured Erythroleukemic Cells; details: in vitro
[3] = system: leukemia patients

Row | SMILES | anti-tumor and anti-leukemia effects [1] | cell differentiation [2] | effects in leukemia patients, by inducing cell differentiation [3]
1 | CCCC(=O)O [arginine butyrate] | anti-tumor and anti-leukemia effects in mice | – | –
2 | CCCC(=O)O [butyric acid] | – | induces cell differentiation in vitro | promising effects in leukemia patients
